Source: US6706663B2, “Herbicidal 3-heterocyclic substituted benzisothiazole and benzisoxazole compounds” (Wyeth, priority 2000, dated 2004)

Key:
[1] = system: IPOHE (Ipomoea hederacea); assay: Preemergence herbicidal evaluation; format: in vivo, (L.) Jacq.; settings: rated 4-5 weeks after treatment
[2] = system: ECHORC (Echinochloa oryzoides); assay: Flooded paddy, postemergence weed control; format: in vivo, Echinochloa oryzoides (Ard.) Fritsch.; settings: postemergence weeds, rated 3-4 weeks after treatment
From the text: (§1) Results of herbicide evaluation are expressed on a rating scale (0-9). The scale is based upon a visual observation of plant stand, vigor, malformation, size, chlorosis and overall plant appearance as compared with a control.
(§2) Plastic containers containing weeds which are 3 to 5 cm tall and rice seedlings at the 1.5 to 2.5 leaf stage are flooded with water. The water is maintained at 1.5 to 3 cm above the soil surface for the duration of the experiment. Test compounds are applied as aqueous/acetone mixtures 50/50 v/v directly into the flood water to provide the equivalent of about 0.0320 to 0.2500 kg/ha of active ingredient. The treated containers are placed on greenhouse benches and cared for in accordance with conventional greenhouse procedures. Three to four weeks after treatment, the test is terminated and each container is examined and herbicidal effect rated according to the rating system provided in Example 87. The compounds evaluated are identified in Example 87 and plant species used are identified in Example 89.

ZEAMX (Corn, Field) = assay: Preemergence herbicidal evaluation; format: in vivo, Zea mays, L.; settings: rated 4-5 weeks after treatment
[3] = system: CYPSE (Cyperus serotinus); assay: Flooded paddy, postemergence weed control; format: in vivo, Rottb.; settings: postemergence weeds, rated 3-4 weeks after treatment
From the text: as §1, §2

SETVI (Setaria viridis) [4] = assay: Postemergence herbicidal evaluation; format: in vivo, (L.) Beau; settings: postemergence
Procedure, shortened: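 Ratings use a 0-9 visual scale covering stand, vigor, malformation, size, chlorosis and appearance versus a control, scored 4-5 weeks post-spray. Roughly two-week-old seedlings received about 0.0040-1.000 kg/ha active, applied in 50/50 acetone/water with 0.5% TWEEN 20. Multiple tests per compound were averaged.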

CYPIR (Cyperus iria) = assay: Flooded paddy, preemergence weed control; format: in vivo; settings: rated 3-4 weeks after treatment, 0-9 rating scale
Procedure, shortened: (§3)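 Visual 0–9 ratings versus controls scored stand, vigor, malformation, size, chlorosis and overall appearance. Plants grew from seeds or propagating organs sown 0.5 cm deep in silt loam, with water held 1.5–3 cm above the soil for the whole test under greenhouse care.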

[5] = system: GLXMAW (Soybean, Williams); assay: Postemergence herbicidal evaluation; format: in vivo, Glycine max, (L.) Merr. cv Williams; settings: postemergence
Procedure, shortened: (§4)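 Seedlings grown about two weeks in flats, sprayed, then kept under standard greenhouse care. Rated visually 4–5 weeks after treatment on a 0–9 scale (stand, vigour, malformation, size, chlorosis, overall appearance) relative to untreated control; repeat tests averaged.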

[6] = system: GLXMAW (Soybean, Williams); assay: Preemergence herbicidal evaluation; format: in vivo, Glycine max, (L.) Merr. cv Williams; settings: rated 4-5 weeks after treatment
SETVI (Setaria viridis) [7] = assay: Preemergence herbicidal evaluation; format: in vivo, (L.) Beau; settings: rated 4-5 weeks after treatment
Procedure, shortened: (§5)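 Visual 0–9 rating versus control (stand, vigor, malformation, size, chlorosis, overall appearance), scored four to five weeks post-treatment. Preemergence spray of aqueous acetone solution onto freshly seeded soil cups; plants grown under conventional greenhouse care.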

[8] = system: ECHCG (Echinochloa crus-galli); assay: Preemergence herbicidal evaluation; format: in vivo, (L.) Beau; settings: rated 4-5 weeks after treatment
Procedure, shortened: as §5

[9] = system: MOOVA (Monochoria vaginalis); assay: Flooded paddy, preemergence weed control; format: in vivo, Presl.; settings: rated 3-4 weeks after treatment, 0-9 rating scale
Procedure, shortened: as §3

[10] = system: MOOVA (Monochoria vaginalis); assay: Flooded paddy, postemergence weed control; format: in vivo, Presl.; settings: postemergence weeds, rated 3-4 weeks after treatment
From the text: as §1, §2

[11] = system: SAGPY (Sagittaria pygmaea); assay: Flooded paddy, postemergence weed control; format: in vivo, L.; settings: postemergence weeds, rated 3-4 weeks after treatment
From the text: as §1, §2

ORYSAT (Rice, Tebonnet) = assay: Flooded paddy, post-transplant and postemergence rice tolerance; format: in vivo, Oryza sativa, (L.) Tebonnet; settings: post-transplant rice, rated 3-4 weeks after treatment
From the text: as §1, §2

GALAP (Galium aparine) [12] = assay: Postemergence herbicidal evaluation; format: in vivo; settings: postemergence
Procedure, shortened: as §4

GALAP (Galium aparine) [13] = assay: Preemergence herbicidal evaluation; format: in vivo; settings: preemergence, rated 4-5 weeks after treatment
Procedure, shortened: as §5

[14] = preemergence, rate 0.0620 kg/ha
[15] = preemergence, rate 0.1250 kg/ha
[16] = preemergence, rate 0.2500 kg/ha

Cn1c(C(F)(F)F)cc(=O)n(-c2ccc3snc(C4OC(C)(C)C(C)(C)O4)c3c2)c1=O [Compound 56, 1-methyl-3-[3-(4,4,5,5-tetramethyl-1,3-dioxolan-2-yl)-1,2-benzisothiazol-5-yl]-6-(trifluoromethyl)uracil]
Preemergence herbicidal rating IPOHE ([1]; Rate 0.0620 kg/ha): 7.5
Preemergence herbicidal rating IPOHE ([1]; Rate 0.1250 kg/ha): 7.5
Preemergence herbicidal rating IPOHE ([1]; Rate 0.2500 kg/ha): 9.0
herbicide rating (0-9) ECHORC ([2]; 0.0320 kg/ha into flood water): 9.0
herbicide rating (0-9) ECHORC ([2]; 0.0620 kg/ha into flood water): 9.0
herbicide rating (0-9) ECHORC ([2]; 0.1250 kg/ha into flood water): 9.0
Preemergence herbicidal rating ZEAMX (ZEAMX (Corn, Field); Rate 0.0620 kg/ha): 7.0
Preemergence herbicidal rating ZEAMX (ZEAMX (Corn, Field); Rate 0.1250 kg/ha): 7.0
Preemergence herbicidal rating ZEAMX (ZEAMX (Corn, Field); Rate 0.2500 kg/ha): 8.0
herbicide rating (0-9) CYPSE ([3]; 0.0620 kg/ha into flood water): 0.0
herbicide rating (0-9) CYPSE ([3]; 0.1250 kg/ha into flood water): 9.0
SETVI herbicidal rating (SETVI (Setaria viridis) [4]; rate 0.0320 kg/ha): 2.0
SETVI herbicidal rating (SETVI (Setaria viridis) [4]; rate 0.0620 kg/ha): 4.0
herbicidal rating, CYPIR (CYPIR (Cyperus iria); rate 0.0080 kg/ha): 6.0
herbicidal rating, CYPIR (CYPIR (Cyperus iria); rate 0.0320 kg/ha): 8.0
herbicidal rating, CYPIR (CYPIR (Cyperus iria); rate 0.1250 kg/ha): 9.0
GLXMAW herbicidal rating ([5]; rate 0.0320 kg/ha): 6.0
GLXMAW herbicidal rating ([5]; rate 0.0620 kg/ha): 6.5
Preemergence herbicidal rating GLXMAW ([6]; Rate 0.0620 kg/ha): 7.5
Preemergence herbicidal rating GLXMAW ([6]; Rate 0.1250 kg/ha): 9.0
Preemergence herbicidal rating GLXMAW ([6]; Rate 0.2500 kg/ha): 9.0
Preemergence herbicidal rating SETVI (SETVI (Setaria viridis) [7]; Rate 0.0620 kg/ha): 8.5
Preemergence herbicidal rating SETVI (SETVI (Setaria viridis) [7]; Rate 0.1250 kg/ha): 9.0
Preemergence herbicidal rating SETVI (SETVI (Setaria viridis) [7]; Rate 0.2500 kg/ha): 9.0
Preemergence herbicidal rating ECHCG ([8]; Rate 0.0620 kg/ha): 9.0
Preemergence herbicidal rating ECHCG ([8]; Rate 0.1250 kg/ha): 9.0
Preemergence herbicidal rating ECHCG ([8]; Rate 0.2500 kg/ha): 9.0
herbicidal rating, MOOVA ([9]; rate 0.0080 kg/ha): 9.0
herbicidal rating, MOOVA ([9]; rate 0.0320 kg/ha): 9.0
herbicidal rating, MOOVA ([9]; rate 0.1250 kg/ha): 9.0
herbicide rating (0-9) MOOVA ([10]; 0.0320 kg/ha into flood water): 2.0
herbicide rating (0-9) MOOVA ([10]; 0.0620 kg/ha into flood water): 4.0
herbicide rating (0-9) MOOVA ([10]; 0.1250 kg/ha into flood water): 7.0
herbicide rating (0-9) SAGPY ([11]; 0.0320 kg/ha into flood water): 0.0
herbicide rating (0-9) SAGPY ([11]; 0.0620 kg/ha into flood water): 0.0
herbicide rating (0-9) SAGPY ([11]; 0.1250 kg/ha into flood water): 2.0
herbicide rating (0-9) ORYSAT (rice tolerance) (ORYSAT (Rice, Tebonnet); 0.0320 kg/ha into flood water): 7.0
herbicide rating (0-9) ORYSAT (rice tolerance) (ORYSAT (Rice, Tebonnet); 0.0620 kg/ha into flood water): 7.0
herbicide rating (0-9) ORYSAT (rice tolerance) (ORYSAT (Rice, Tebonnet); 0.1250 kg/ha into flood water): 9.0
GALAP herbicidal rating (GALAP (Galium aparine) [12]; rate 0.0320 kg/ha): 3.0
GALAP herbicidal rating (GALAP (Galium aparine) [12]; rate 0.0620 kg/ha): 3.0

Cn1c(C(F)(F)F)cc(=O)n(-c2ccc3snc(C4OCC(C[S+](C)[O-])O4)c3c2)c1=O (stereo not drawn) [Compound 88, 1-methyl-3-[3-[4-[(methylsulfinyl)methyl]-1,3-dioxolan-2-yl]-1,2-benzisothiazol-5-yl]-6-(trifluoromethyl)uracil]
Preemergence herbicidal rating IPOHE [1, 14]: 6.0
Preemergence herbicidal rating IPOHE [1, 15]: 7.5
Preemergence herbicidal rating IPOHE [1, 16]: 9.0
Preemergence herbicidal rating ZEAMX (ZEAMX (Corn, Field); [14]): 3.5
Preemergence herbicidal rating ZEAMX (ZEAMX (Corn, Field); [15]): 6.0
Preemergence herbicidal rating ZEAMX (ZEAMX (Corn, Field); [16]): 7.0
SETVI herbicidal rating (SETVI (Setaria viridis) [4]; rate 0.0320 kg/ha): 9.0
SETVI herbicidal rating (SETVI (Setaria viridis) [4]; rate 0.0620 kg/ha): 9.0
CYPIR herbicidal rating (CYPIR (Cyperus iria); rate 0.0320 kg/ha): 0.0
CYPIR herbicidal rating (CYPIR (Cyperus iria); rate 0.1250 kg/ha): 9.0
GLXMAW herbicidal rating ([5]; rate 0.0320 kg/ha): 9.0
GLXMAW herbicidal rating ([5]; rate 0.0620 kg/ha): 9.0
Preemergence herbicidal rating GLXMAW [6, 14]: 9.0
Preemergence herbicidal rating GLXMAW [6, 15]: 9.0
Preemergence herbicidal rating GLXMAW [6, 16]: 9.0
Preemergence herbicidal rating SETVI (SETVI (Setaria viridis) [7]; [14]): 5.5
Preemergence herbicidal rating SETVI (SETVI (Setaria viridis) [7]; [15]): 9.0
Preemergence herbicidal rating SETVI (SETVI (Setaria viridis) [7]; [16]): 9.0
Preemergence herbicidal rating ECHCG [8, 14]: 5.5
Preemergence herbicidal rating ECHCG [8, 15]: 6.5
Preemergence herbicidal rating ECHCG [8, 16]: 9.0
MOOVA herbicidal rating ([9]; rate 0.0320 kg/ha): 0.0
MOOVA herbicidal rating ([9]; rate 0.1250 kg/ha): 9.0
Preemergence herbicidal rating GALAP (GALAP (Galium aparine) [13]; rate 0.0620 kg/ha): 7.0
Preemergence herbicidal rating GALAP (GALAP (Galium aparine) [13]; rate 0.1250 kg/ha): 9.0
Preemergence herbicidal rating GALAP (GALAP (Galium aparine) [13]; rate 0.2500 kg/ha): 9.0
GALAP herbicidal rating (GALAP (Galium aparine) [12]; rate 0.0320 kg/ha): 9.0
GALAP herbicidal rating (GALAP (Galium aparine) [12]; rate 0.0620 kg/ha): 9.0
